Test results taken from patent US20050014846A1, “Ambroxol for the treatment of tinnitus” (Boehringer Ingelheim International GmbH, priority 2003, published 2005).

How the values were obtained:
[1] = tested on: centrally expressed neuronal sodium channels; conditions: neuronal sodium channel subtypes, Weiser and Wilson, Mol. Pharmacol. 62, 433-438, 2002, read-out: half-maximum inhibition of centrally expressed channels; cited from earlier work
[2] = molecular target: T1, human GluR1/2 receptors (Homo sapiens, UniProt P42261+P42262); assay: Patch-clamp of glutamate-induced membrane currents in HEK 293 cells expressing GluR1/2; assay type: cell-based; conditions: recombinant human GluR1/2, 1 mM glutamate for 1 s at holding potential −80 mV
T1 construct: expressed in transfected cells; host or cells: HEK 293
T1 sequence (P42261 19-906): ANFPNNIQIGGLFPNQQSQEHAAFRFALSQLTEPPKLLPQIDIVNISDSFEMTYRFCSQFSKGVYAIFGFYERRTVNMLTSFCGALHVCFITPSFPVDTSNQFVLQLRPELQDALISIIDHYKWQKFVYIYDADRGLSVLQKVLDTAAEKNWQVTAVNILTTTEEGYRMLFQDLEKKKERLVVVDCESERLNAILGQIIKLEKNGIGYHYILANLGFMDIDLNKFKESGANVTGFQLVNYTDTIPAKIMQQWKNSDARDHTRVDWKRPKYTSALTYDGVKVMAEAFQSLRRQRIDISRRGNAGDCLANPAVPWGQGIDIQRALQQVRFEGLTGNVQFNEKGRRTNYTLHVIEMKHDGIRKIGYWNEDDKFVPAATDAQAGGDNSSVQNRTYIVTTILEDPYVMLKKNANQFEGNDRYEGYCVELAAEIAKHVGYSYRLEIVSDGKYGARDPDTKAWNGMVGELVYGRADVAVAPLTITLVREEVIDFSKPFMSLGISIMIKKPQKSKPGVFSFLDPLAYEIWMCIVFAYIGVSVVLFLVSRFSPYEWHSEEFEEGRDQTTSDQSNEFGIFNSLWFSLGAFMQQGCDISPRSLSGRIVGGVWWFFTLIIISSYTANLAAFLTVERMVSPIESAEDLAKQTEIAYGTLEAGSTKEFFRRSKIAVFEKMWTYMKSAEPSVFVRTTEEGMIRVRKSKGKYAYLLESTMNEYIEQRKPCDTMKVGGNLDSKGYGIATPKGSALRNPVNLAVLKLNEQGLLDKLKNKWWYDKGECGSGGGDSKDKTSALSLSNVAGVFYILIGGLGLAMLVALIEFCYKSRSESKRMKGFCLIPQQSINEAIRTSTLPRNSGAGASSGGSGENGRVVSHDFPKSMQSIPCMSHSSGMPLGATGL
T1 sequence (P42262 22-883 limits assumed): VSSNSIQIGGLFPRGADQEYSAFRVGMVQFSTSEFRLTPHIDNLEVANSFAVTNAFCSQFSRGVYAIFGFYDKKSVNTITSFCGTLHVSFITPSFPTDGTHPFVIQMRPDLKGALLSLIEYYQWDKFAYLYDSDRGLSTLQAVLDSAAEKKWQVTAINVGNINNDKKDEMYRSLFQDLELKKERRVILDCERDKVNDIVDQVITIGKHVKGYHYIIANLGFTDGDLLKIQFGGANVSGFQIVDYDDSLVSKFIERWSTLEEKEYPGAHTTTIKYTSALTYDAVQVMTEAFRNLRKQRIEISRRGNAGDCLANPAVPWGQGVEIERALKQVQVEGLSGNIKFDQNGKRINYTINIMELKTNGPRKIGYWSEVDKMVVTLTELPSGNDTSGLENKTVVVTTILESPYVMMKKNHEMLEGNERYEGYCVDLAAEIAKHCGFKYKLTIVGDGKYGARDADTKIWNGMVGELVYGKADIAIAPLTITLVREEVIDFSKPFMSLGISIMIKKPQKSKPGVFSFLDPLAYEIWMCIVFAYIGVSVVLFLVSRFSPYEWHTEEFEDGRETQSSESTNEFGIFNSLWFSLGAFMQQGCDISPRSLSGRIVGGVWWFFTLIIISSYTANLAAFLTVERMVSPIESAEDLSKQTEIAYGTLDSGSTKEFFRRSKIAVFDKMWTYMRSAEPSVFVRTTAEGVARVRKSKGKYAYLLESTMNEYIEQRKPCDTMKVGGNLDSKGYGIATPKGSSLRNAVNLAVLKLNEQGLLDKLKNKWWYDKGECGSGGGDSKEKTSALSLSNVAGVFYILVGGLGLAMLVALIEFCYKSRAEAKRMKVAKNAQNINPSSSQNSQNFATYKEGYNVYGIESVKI
Experimental: Ionotropic glutamate receptors of the AMPA subtype are also essential for the excitatory neurotransmission. […] HEK 293 cells which expressed functionally recombinant human GluR1/2 receptors were electrophysiologically investigated by the Patch-Clamp method ([…]). The administration of 1 mM glutamate (for 1 s at a holding potential of −80 mV) induced membrane currents which were inhibited by the joint administration of ambroxol.

concentrations inhibiting glutamate-induced membrane currents [2]: 30 to 1000 µM
Structure (SMILES): Nc1c(Br)cc(Br)cc1CN[C@H]1CC[C@H](O)CC1 [ambroxol, trans-4-(2-amino-3,5-dibromobenzylamino)cyclohexanol]
IC50 [1]: 111 µM
